{
  "source": "paper PMC5741723",
  "about": "“Residues His172 and Lys238 are Essential for the Catalytic Activity of the Maleylacetate Reductase from Sphingobium chlorophenolicum Strain L-1” (Scientific Reports, 2017)",
  "key": {"[1]": {"target": "T1, maleylacetate reductase (PcpE) (Sphingobium chlorophenolicum, UniProt F6F233)", "T1 construct": "gene Sphch_4020; full length, 352 residues; recombinant His6-tagged, tag kept (SPR); mutants in pET30a(+) NdeI/XhoI, E. coli BL21-AI", "T1 sequence (F6F233 entry or part of it)": "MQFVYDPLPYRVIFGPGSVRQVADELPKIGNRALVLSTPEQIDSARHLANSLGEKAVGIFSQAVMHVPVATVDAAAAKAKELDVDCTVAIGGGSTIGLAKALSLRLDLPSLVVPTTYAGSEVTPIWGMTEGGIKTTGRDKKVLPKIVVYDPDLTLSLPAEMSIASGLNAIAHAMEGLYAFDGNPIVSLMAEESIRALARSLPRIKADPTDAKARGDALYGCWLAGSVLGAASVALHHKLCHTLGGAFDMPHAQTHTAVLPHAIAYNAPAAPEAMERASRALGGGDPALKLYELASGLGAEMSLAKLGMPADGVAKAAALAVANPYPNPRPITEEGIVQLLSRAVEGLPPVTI", "assay": "surface plasmon resonance", "assay_type": "binding", "conditions": "PcpE immobilised by amine coupling; PBS-T, 5% DMSO, pH 7.4; n = 5"}, "[2]": {"target": "T1, maleylacetate reductase (PcpE)", "assay": "inhibition of MA reduction, NADH loss at […] nm", "assay_type": "biochemical", "conditions": "360 µM NADH, 400 µM MA, 20 mM Tris-HCl pH 7.0"}},
  "data": [
    {"smiles": "Oc1c(Cl)c(Cl)c(Cl)c(Cl)c1Cl", "note": "[PCP, pentachlorophenol]", "values": [
      {"measurement": "Kd", "setting": "[1]", "result": "12.8 ± 0.2", "unit": "µM"},
      {"measurement": "% catalytic activity remaining at 5 μM", "setting": "[2]", "result": "~ 30%"}
    ]}
  ]
}
